Source: PMC5571359, “Screening the Medicines for Malaria Venture Pathogen Box across Multiple Pathogens Reclassifies Starting Points for Open-Source Drug Discovery” (Antimicrobial Agents and Chemotherapy, 2017)
Read-outs that look alike come from different tables or passages of the source.

How the values were obtained:
[1] = tested on: NF54-pfs16-LUC-GFP stage IV gametocytes; assay: Plasmodium falciparum late stage gametocyte (LSG) image-based assay; assay type: cell-based; details: for IC50: Plasmodium falciparum
[2] = tested on: T. b. brucei 427 bloodstream trypanosomes; assay: T. b. brucei resazurin viability assay; assay type: cell-based, Trypanosoma brucei brucei; details: Trypanosoma brucei
[3] = tested on: L. donovani MHOM/IN/80/DD8 intracellular amastigotes; assay: Leishmania donovani intracellular amastigote assay in THP-1 cells; assay type: cell-based; details: Leishmania donovani, THP-1, intracellular amastigotes
P. falciparum ABS = details: cited from earlier work; for EC50: ChEMBL Data
[4] = tested on: P. falciparum stage V gametocytes; details: cited from earlier work; for IC50 / PF stage V GAMS PBox IC50 µM: stage V gametocytes; for IC50: read-out: PF stage V GAMS PBox IC50; for activity against gametocytes (stage V), PBox supporting information: ref Pbox supporting information
liver stage = details: cited from earlier work
HepG2 = details: read-out: HepG2 PBox CC50 µM, cited from earlier work
[5] = tested on: Plasmodium falciparum 3D7 asexual blood stage; assay: microbe, parasite or virus in culture
HEK293 cells = assay: HEK293 resazurin cell cytotoxicity assay; details: Homo sapiens; for inhibition at 20 µM: HEK293, read-out: HEK % Inhibition 20uM/IC50 Discovery Biology
[6] = tested on: T. cruzi intracellular amastigotes; assay: Intracellular anti-Trypanosoma cruzi image-based assay (amastigotes); assay type: cell-based; details: Trypanosoma cruzi; intracellular amastigotes, Discovery Biology; read-out: T cruzi Discovery Biology IC50
[7] = NF54, read-out: Pf Stage IV GAMS Discovery Biology IC50 µM, stage IV gametocytes, Discovery Biology
[8] = PBox compounds, read-out: IC50 T. brucei brucei (Discovery Biology)
[9] = Discovery Biology, some values carry an asterisk, read-out: L, donovani Discovery Biology IC50 µM
[10] = TCMDC, read-out: TCMDC (ref 93) EX50
[11] = Pf 3D7, ref Pathogen Box supporting information, read-out: Pf 3D7 Pbox IC50
[12] = ref Pathogen Box supporting information
[13] = liver stage, ref Pathogen Box supporting information, read-out: LIVER STAGE Pbox IC50
[14] = HepG2 CC50, ref Pathogen Box supporting information
[15] = 3D7, read-out: Pf 3D7 Discovery Biology IC50 µM, P. falciparum 3D7 asexual blood stage, Discovery Biology
[16] = NITD, read-out: NITD (ref 94) EC50
[17] = read-out: T b.brucei Discovery Biology IC50
[18] = NF54, read-out: Pf Stage IV GAMS Discovery Biology IC50 µM, stage IV gametocytes
[19] = P. falciparum 3D7, ref PBox supporting information, read-out: Pf 3D7 Pbox IC50
[20] = ref PBox supporting information
[21] = ref Pbox supporting information
[22] = 3D7, read-out: Pf 3D7 Discovery Biology IC50 µM, P. falciparum 3D7 asexual blood stage
[23] = HEK293, read-out: HEK % Inhibition 20uM/IC50 Discovery Biology (IA)
[24] = HEK293, read-out: HEK % Discovery Biology IC50 uM

SMILES	IC50 [1, 7] [µM]	EC50 (P. falciparum ABS; [10]) [nM]	IC50 (P. falciparum ABS; [11]) [nM]	IC50 [4, 12] [nM]	IC50 (liver stage; [13]) [nM]	CC50 (HepG2; [14]) [µM]	IC50 [5, 15] [µM]	further results
CN1CCC(NCc2cccc(-c3ccc(S(=O)(=O)NCc4ccccc4)cc3)c2)CC1 [MMV022029]	4.04	690	820	1420	4550	> 10	0.69	IC50 [2, 8]: 2.38 µM; IC50 [3, 9]: 5.03 µM; inhibition at 20 µM (HEK293 cells): 100%
COc1ccc(-c2cnc3ccc(N4CCCC4)nn23)cc1OC [MMV023985]	5.83	770	700	410	630	> 10	1.99	
CN(C)c1cc(NC(=O)Nc2ccccc2)c2ccccc2n1 [MMV006901]		410	600	3130	> 10000	> 10		activity in the Discovery Biology stage IV gametocyte (LSG) assay [1]: only moderately active; IC50 [2, 8]: 3.36 µM; EC50 (P. falciparum ABS; [16]): 150 nM
Nc1nccc2ccc(-c3ccc4nccn4c3)cc12 [MMV023233]	3.08	100	160	400			0.11	activity in the Discovery Biology stage IV gametocyte (LSG) assay [1]: demonstrate activity; IC50 [2, 17]: 3.29 µM; activity against gametocytes (stage V), PBox supporting information [4]: demonstrate activity; inhibition at 20 µM (HEK293 cells): 74%
CCn1ncc2c(NC3CCOCC3)c(CNC(=O)c3ccnn3C)c(C)nc21 [MMV026356]								IC50 [1, 18]: 0.74 µM; EC50 (P. falciparum ABS; P. falciparum, read-out: TCMDC (ref 93) EX50): 530 nM; IC50 (P. falciparum ABS; [19]): 280 nM; IC50 [4, 20]: 240 nM; IC50 (liver stage; [21]): 1600 nM; CC50 (HepG2; [20]): > 10 µM; IC50 [5, 22]: 0.27 µM; IC50 (HEK293 cells; [23]): > 20 µM
N#Cc1ccc(-c2cnc(N)c(-c3ccc(C(N)=O)cc3)n2)cc1 [MMV085499]								IC50 [1, 18]: 0.55 µM; EC50 (P. falciparum ABS; P. falciparum, read-out: NITD (ref 94) EC50): 60 nM; IC50 (P. falciparum ABS; [19]): 95 nM; IC50 [4, 20]: 140 nM; IC50 (liver stage; [21]): 280 nM; CC50 (HepG2; [20]): > 10 µM; IC50 [5, 22]: 0.19 µM; IC50 (HEK293 cells; [23]): > 20 µM
c1ccc(-c2cc(N3CCCCC3)c3ccccc3n2)nc1 [MMV560185]								activity in the Discovery Biology stage IV gametocyte (LSG) assay [1]: demonstrate activity; IC50 [1, 18]: 0.71 µM; IC50 (P. falciparum ABS; [19]): > 2000 nM; activity against gametocytes (stage V), PBox supporting information [4]: demonstrate activity; IC50 [4, 20]: 510 nM; IC50 (liver stage; [21]): 9700 nM; CC50 (HepG2; [20]): > 10 µM; IC50 (HEK293 cells; [23]): > 20 µM
CCN(CC)S(=O)(=O)c1ccc(Cl)c(C(=O)Nc2ccc3nc(C)sc3c2)c1 [MMV019721]	0.79	800	500	3910	1310	> 10	0.78	
O=C(NCCN1CCCC1)c1cc(NCCCCN2CCC(F)(F)CC2)nc2ccc(Cl)cc12 [MMV667494]								IC50 [1, 18]: 0.12 µM; IC50 (P. falciparum ABS; [19]): 7 nM; PF stage V GAMS PBox IC50 µM [4, 20]: KTBA; LIVER STAGE Pbox IC50 µM (liver stage; [21]): KTBA; IC50 ([5]; 3D7, read-out: Pf 3D7 Discovery Biology IC50, P. falciparum 3D7 asexual blood stage, nM): < 0.01 µM; IC50 (HEK293 cells; [23]): > 20 µM
O=C(Nc1ccccc1)c1ccc(-c2cc3ccncc3cc2OC2CCNCC2)s1 [MMV024035]	4.48	650	570	2280	7370	> 7.5	0.31	IC50 [2, 17]: 2.72 µM; IC50 (HEK293 cells; [24]): 6.67 µM
Cc1cc(Nc2ccc(C(F)(F)F)cc2)n2ccnc2n1 [MMV011229]								activity in the Discovery Biology stage IV gametocyte (LSG) assay [1]: did not find this compound to be active; IC50 (P. falciparum ABS; ref Pbox supporting information, read-out: ABS activity, PBox supporting information): 380 nM; activity against gametocytes (stage V), PBox supporting information [4]: ktba; activity against liver stage, PBox supporting information (liver stage; [21]): ktba
O=C(NCCN1CCCC1)c1cc(NCCN2CCOCC2)nc2ccc(Cl)cc12 [MMV634140]								IC50 [1, 18]: 0.39 µM; IC50 (P. falciparum ABS; [19]): 100 nM; PF stage V GAMS PBox IC50 µM [4, 20]: KTBA; LIVER STAGE Pbox IC50 µM (liver stage; [21]): KTBA; IC50 [5, 22]: 0.09 µM; IC50 (HEK293 cells; [23]): > 20 µM
COc1cc(-c2cc(-c3ccc(S(C)(=O)=O)cc3)cnc2N)ccc1O [MMV010576]	0.15	100	100	66	2520	> 10	0.07	IC50 ([3]; PBox compounds, read-out: IC50 L. donovani (Discovery Biology)): 5.18 µM
Cc1ccc2c(c1C)NC(=O)C21NN=C(c2ccccc2)S1 (stereo not shown) [MMV019189]	1.97	750	1130	900	880	> 7.5	2.28	IC50 [2, 17]: 4.68 µM
NS(=O)(=O)c1cccc(-c2ccc3ncc(N4CCOCC4)nc3c2)c1 [MMV023860]	2.13	990	1500	1330	1820	> 10	0.89	inhibition at 20 µM (HEK293 cells): 40%
COc1ccc(-c2cnc3ccc(NCc4ccc(S(N)(=O)=O)cc4)nn23)cn1 [MMV010545]	1.17	870	490	1030	6800	> 10	0.58	
O=C(Nc1ccc(N2CCNCC2)cc1)c1ccn2ncc(-c3cccc(Cl)c3)c2n1 [MMV022478]	2.89	920	780	620	> 10000	> 10	1.29	activity in the Discovery Biology stage IV gametocyte (LSG) assay [1]: demonstrate activity; IC50 [6]: 4.7 µM; IC50 [2, 8]: 1.45 µM; IC50 [3, 9]: 5.02 µM; activity against gametocytes (stage V), PBox supporting information [4]: demonstrate activity; IC50 (HEK293 cells; [24]): 8.11 µM
Cc1ccc(NC(=O)c2nc[nH]c2C(=O)Nc2nc3ccccc3[nH]2)c(C)c1 [MMV011903]			360	> 8300	> 10000	> 10		EC50 (P. falciparum ABS; [16]): 730 nM
